Experimental data reported in ChEMBL document CHEMBL5137134, “Developing the Natural Prenylflavone Artocarpin from Artocarpus hirsutus as a Potential Lead Targeting Pathogenic, Multidrug-Resistant Staphylococcus aureus, Persisters and Biofilms with No Detectable Resistance” (J Nat Prod, 2022).
≈ marks a conversion by molar mass, not a printed value. Calls of active or inactive are those of the source. The calls are words filed in the database; no cut-off is given here.

Assays:
Staphylococcus aureus [1] = experiment: Antibacterial activity against methicillin/levoflaxacin/vancomycin/meropenem/gentamycin/spectinomycin/teicoplanin resistant Staphylococcus aureus VRS 1 assessed as reduction in bacterial growth incubated for 16 to 18 hrs by broth microdilution method; format: functional; conditions: time 16-18 hrs
Enterococcus [2] = experiment: Antibacterial activity against vancomycin/methicillin/levoflaxacin/minocycline resistant Enterococcus NR 31903 assessed as reduction in bacterial growth incubated for 16 to 18 hrs by broth microdilution method; format: functional; conditions: time 16-18 hrs
Staphylococcus aureus [3] = experiment: Synergistic antibacterial activity against Staphylococcus aureus ATCC 29213 assessed as fractional inhibitory concentration incubated for 24 hrs in presence of levofloxacin by checkerboard method; format: functional
Staphylococcus aureus [4] = experiment: Post antibiotic effect against Staphylococcus aureus ATCC 29213 at 10 times MIC incubated for 1 hr followed by replacement with drug free medium and measured every 1 hr (reference value: 0 hr); format: functional
Staphylococcus aureus [5] = experiment: Bactericidal activity against Staphylococcus aureus ATCC 29213 assessed as inhibition of bacterial regrowth at 10 time MIC after 24 hrs by time kill assay; format: functional, organism-based
Staphylococcus aureus [6] = experiment: Antibacterial activity against methicillin/tetracycline resistant Staphylococcus aureus NRS 100 assessed as reduction in bacterial growth incubated for 16 to 18 hrs by broth microdilution method; format: functional; conditions: time 16-18 hrs
Staphylococcus aureus [7] = experiment: Synergistic antibacterial activity against Staphylococcus aureus ATCC 29213 assessed as fractional inhibitory concentration incubated for 24 hrs in presence of linezolid by checkerboard method; format: functional
Staphylococcus aureus [8] = experiment: Antibacterial activity against methicillin/levoflaxacin/meropenem/erythromycin resistant Staphylococcus aureus NRS 192 assessed as reduction in bacterial growth incubated for 16 to 18 hrs by broth microdilution method; format: functional; conditions: time 16-18 hrs
Staphylococcus aureus [9] = experiment: Synergistic antibacterial activity against Staphylococcus aureus ATCC 29213 assessed as reduction in bacterial growth incubated for 24 hrs in presence of rifampicin by checkerboard method; format: functional
Staphylococcus aureus [10] = experiment: Synergistic antibacterial activity against Staphylococcus aureus ATCC 29213 assessed as reduction in bacterial growth incubated for 24 hrs in presence of ceftazidime by checkerboard method; format: functional
Staphylococcus aureus [11] = experiment: Antibacterial activity against chloramphenicol resistant Staphylococcus aureus NRS 129 assessed as reduction in bacterial growth incubated for 16 to 18 hrs by broth microdilution method; format: functional; conditions: time 16-18 hrs
Staphylococcus aureus [12] = experiment: Bactericidal activity against Staphylococcus aureus ATCC 29213 assessed as reduction in log10 CFU at 10 time MIC after 1 hr by time kill assay; format: functional
Pseudomonas aeruginosa = experiment: Antibacterial activity against Pseudomonas aeruginosa ATCC 27853 assessed as reduction in bacterial growth incubated for 16 to 18 hrs by broth microdilution method; format: functional; conditions: time 16-18 hrs
Staphylococcus aureus [13] = experiment: Synergistic antibacterial activity against Staphylococcus aureus ATCC 29213 assessed as reduction in bacterial growth incubated for 24 hrs in presence of levofloxacin by checkerboard method; format: functional
Enterococcus [14] = experiment: Antibacterial activity against vancomycin/methicillin/levoflaxacin/minocycline resistant Enterococcus NR 31909 assessed as reduction in bacterial growth incubated for 16 to 18 hrs by broth microdilution method; format: functional; conditions: time 16-18 hrs
Staphylococcus aureus [15] = experiment: Antibacterial activity against Staphylococcus aureus ATCC 29213 infected in Swiss mouse skin infection model assessed as reduction in skin bacterial load at 1 % dose administered twice daily for 4 days; format: functional; conditions: time 4 day
Staphylococcus aureus [16] = experiment: Antibacterial activity against methicillin/levoflaxacin/meropenem resistant Staphylococcus aureus NRS 186 assessed as reduction in bacterial growth incubated for 16 to 18 hrs by broth microdilution method; format: functional; conditions: time 16-18 hrs
Klebsiella pneumoniae = experiment: Antibacterial activity against Klebsiella pneumoniae BAA 1705 assessed as reduction in bacterial growth incubated for 16 to 18 hrs by broth microdilution method; format: functional; conditions: time 16-18 hrs
Staphylococcus aureus [17] = experiment: Antibacterial activity against methicillin/meropenem/levoflaxacin resistant Staphylococcus aureus NRS 198 assessed as reduction in bacterial growth incubated for 16 to 18 hrs by broth microdilution method; format: functional; conditions: time 16-18 hrs
Staphylococcus aureus [18] = experiment: Antibacterial activity against methicillin/meropenem resistant Staphylococcus aureus NRS 194 assessed as reduction in bacterial growth incubated for 16 to 18 hrs by broth microdilution method; format: functional; conditions: time 16-18 hrs
Enterococcus [19] = experiment: Antibacterial activity against vancomycin sensitive/methicillin resistant Enterococcus NR 31885 assessed as reduction in bacterial growth incubated for 16 to 18 hrs by broth microdilution method; format: functional; conditions: time 16-18 hrs
Staphylococcus aureus [20] = experiment: Synergistic antibacterial activity against Staphylococcus aureus ATCC 29213 assessed as fractional inhibitory concentration incubated for 24 hrs in presence of rifampicin by checkerboard method; format: functional
Enterococcus [21] = experiment: Antibacterial activity against vancomycin sensitive/methicillin resistant Enterococcus NR 31884 assessed as reduction in bacterial growth incubated for 16 to 18 hrs by broth microdilution method; format: functional; conditions: time 16-18 hrs
Staphylococcus aureus [22] = experiment: microbe, parasite or virus in culture; conditions: ATCC 29213
Description: Antibacterial activity against Staphylococcus aureus ATCC 29213 assessed as reduction in bacterial growth incubated for 16 to 18 hrs by broth microdilution method

Staphylococcus aureus [23] = experiment: Post antibiotic effect against Staphylococcus aureus ATCC 29213 assessed as time required for 1 log10 increase in CFU at 10 times MIC incubated for 1 hr followed by replacement with drug free medium and measured every 1 hr (reference value: 2 hrs); format: functional
Staphylococcus aureus [24] = experiment: Post antibiotic effect against Staphylococcus aureus ATCC 29213 assessed as time required for 1 log10 increase in CFU at 1 time MIC incubated for 1 hr followed by replacement with drug free medium and measured every 1 hr (reference value: 2 hrs); format: functional
Staphylococcus aureus [25] = experiment: Bactericidal activity against Staphylococcus aureus ATCC 29213 assessed as increase in extracellular ATP level after 1 hr by ATP bioluminescence assay; format: functional, organism-based; conditions: DDE = dose-dependent effect
Enterococcus [26] = experiment: Antibacterial activity against vancomycin sensitive/methicillin resistant Enterococcus NR 31888 assessed as reduction in bacterial growth incubated for 16 to 18 hrs by broth microdilution method; format: functional; conditions: time 16-18 hrs
Staphylococcus aureus [27] = experiment: Bactericidal activity against Staphylococcus aureus ATCC 29213 assessed as increase in dead bacterial cells at 2.5 times MIC after 30 mins by confocal laser scanning microscopy analysis; format: functional, organism-based
[28] = Selectivity index, ratio of CC50 for African green monkey Vero cells to MIC for Staphylococcus aureus ATCC 29213; format: toxicity; conditions: read-out: Selectivity Index

COc1cc2oc(-c3ccc(O)cc3O)c(CC=C(C)C)c(=O)c2c(O)c1/C=C/C(C)C [ARTOCARPIN]
MIC (Staphylococcus aureus [1]): 4 µg/mL (≈ 9.16 µM) | MIC (Enterococcus [2]): 2 µg/mL (≈ 4.58 µM) | FIC (Staphylococcus aureus [3]): 0.5 | PAE (Staphylococcus aureus [4]): 22 h | Activity (Staphylococcus aureus [5]): Active | MIC (Staphylococcus aureus [6]): 4 µg/mL (≈ 9.16 µM) | FIC (Staphylococcus aureus [7]): 0.25 | MIC (Staphylococcus aureus [8]): 4 µg/mL (≈ 9.16 µM) | MIC (Staphylococcus aureus [9]): 2 µg/mL | MIC (Staphylococcus aureus [10]): 2 µg/mL | MIC (Staphylococcus aureus [11]): 4 µg/mL (≈ 9.16 µM) | Activity (Staphylococcus aureus [12]): 4.8 log10CFU/ml | MIC (Pseudomonas aeruginosa): > 128 µg/mL | MIC (Staphylococcus aureus [13]): 2 µg/mL | MIC (Enterococcus [14]): 1 µg/mL (≈ 2.29 µM) | Activity (Staphylococcus aureus [15]): 1 log10CFU/g | MIC (Staphylococcus aureus [16]): 4 µg/mL (≈ 9.16 µM) | MIC (Klebsiella pneumoniae): > 128 µg/mL | MIC (Staphylococcus aureus [17]): 2 µg/mL (≈ 4.58 µM) | MIC (Staphylococcus aureus [18]): 4 µg/mL (≈ 9.16 µM) | MIC (Enterococcus [19]): 2 µg/mL (≈ 4.58 µM) | FIC (Staphylococcus aureus [20]): 0.5 | MIC (Enterococcus [21]): 2 µg/mL (≈ 4.58 µM) | MIC (Staphylococcus aureus [22]): 2 µg/mL (≈ 4.58 µM) | Time (Staphylococcus aureus [23]): 24 h | Time (Staphylococcus aureus [24]): 5 h | Activity (Staphylococcus aureus [25]): Dde | MIC (Enterococcus [26]): 2 µg/mL (≈ 4.58 µM) | Activity (Staphylococcus aureus [27]): Active | selectivity ratio [28]: 40
